# The kinase profiling compilation of Christmann-Franck et al. (2016)
# What was measured:
# PIM1 (human) = PIM1 (human) (UniProt P11309); conditions: compound 10.0 µM
# PRKACA (mouse) = conditions: compound 10.0 µM; accession and sequence are those of the human protein
# PRKAA1 (human) = PRKAA1 (human) (UniProt Q13131); conditions: compound 10.0 µM
# AKT1 (human) = AKT1 (human) (UniProt P31749); conditions: compound 10.0 µM
# PRKAA2 (human) = PRKAA2 (human) (UniProt P54646); conditions: compound 10.0 µM
# PRKAA2 (human), sequence (P54646 whole entry, looked up): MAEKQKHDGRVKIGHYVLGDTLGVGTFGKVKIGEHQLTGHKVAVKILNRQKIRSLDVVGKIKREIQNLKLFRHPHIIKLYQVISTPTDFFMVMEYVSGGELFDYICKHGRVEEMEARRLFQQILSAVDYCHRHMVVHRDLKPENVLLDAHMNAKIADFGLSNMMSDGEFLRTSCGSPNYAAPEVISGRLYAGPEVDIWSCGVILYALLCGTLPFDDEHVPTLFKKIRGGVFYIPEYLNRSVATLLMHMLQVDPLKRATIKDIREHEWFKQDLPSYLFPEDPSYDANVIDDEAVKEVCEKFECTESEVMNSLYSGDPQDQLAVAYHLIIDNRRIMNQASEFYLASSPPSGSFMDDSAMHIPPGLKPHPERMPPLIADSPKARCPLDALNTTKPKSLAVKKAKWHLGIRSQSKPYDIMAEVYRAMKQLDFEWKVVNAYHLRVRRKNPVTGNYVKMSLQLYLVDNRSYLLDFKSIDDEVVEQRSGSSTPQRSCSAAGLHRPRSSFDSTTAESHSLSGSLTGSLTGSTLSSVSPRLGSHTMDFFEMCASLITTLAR
# FGFR1 (human) = FGFR1 (human) (UniProt P11362); conditions: compound 10.0 µM
# FGFR1 (human), sequence (P11362 whole entry, looked up): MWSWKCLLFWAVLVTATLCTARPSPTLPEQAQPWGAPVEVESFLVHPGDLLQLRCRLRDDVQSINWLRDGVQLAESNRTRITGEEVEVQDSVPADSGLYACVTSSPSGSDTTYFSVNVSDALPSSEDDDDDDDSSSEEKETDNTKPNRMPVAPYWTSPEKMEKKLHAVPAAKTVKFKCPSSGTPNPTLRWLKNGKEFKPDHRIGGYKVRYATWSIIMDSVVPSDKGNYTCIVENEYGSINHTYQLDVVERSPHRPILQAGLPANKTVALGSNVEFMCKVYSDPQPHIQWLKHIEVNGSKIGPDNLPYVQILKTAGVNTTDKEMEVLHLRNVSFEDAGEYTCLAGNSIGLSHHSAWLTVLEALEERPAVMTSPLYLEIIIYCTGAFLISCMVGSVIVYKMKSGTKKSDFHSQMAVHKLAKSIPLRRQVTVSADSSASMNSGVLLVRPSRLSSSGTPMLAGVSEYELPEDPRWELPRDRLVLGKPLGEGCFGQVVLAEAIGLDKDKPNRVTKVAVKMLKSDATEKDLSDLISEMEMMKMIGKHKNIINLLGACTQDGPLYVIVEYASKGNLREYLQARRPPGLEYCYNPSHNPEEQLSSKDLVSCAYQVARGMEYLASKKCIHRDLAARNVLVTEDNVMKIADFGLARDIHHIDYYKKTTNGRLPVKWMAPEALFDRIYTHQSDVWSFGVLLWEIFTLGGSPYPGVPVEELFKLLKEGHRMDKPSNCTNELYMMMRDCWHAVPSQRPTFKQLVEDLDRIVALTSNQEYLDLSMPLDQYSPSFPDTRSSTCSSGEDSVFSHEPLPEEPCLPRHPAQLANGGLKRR
# PRKAA1 (human), sequence (Q13131 whole entry, looked up): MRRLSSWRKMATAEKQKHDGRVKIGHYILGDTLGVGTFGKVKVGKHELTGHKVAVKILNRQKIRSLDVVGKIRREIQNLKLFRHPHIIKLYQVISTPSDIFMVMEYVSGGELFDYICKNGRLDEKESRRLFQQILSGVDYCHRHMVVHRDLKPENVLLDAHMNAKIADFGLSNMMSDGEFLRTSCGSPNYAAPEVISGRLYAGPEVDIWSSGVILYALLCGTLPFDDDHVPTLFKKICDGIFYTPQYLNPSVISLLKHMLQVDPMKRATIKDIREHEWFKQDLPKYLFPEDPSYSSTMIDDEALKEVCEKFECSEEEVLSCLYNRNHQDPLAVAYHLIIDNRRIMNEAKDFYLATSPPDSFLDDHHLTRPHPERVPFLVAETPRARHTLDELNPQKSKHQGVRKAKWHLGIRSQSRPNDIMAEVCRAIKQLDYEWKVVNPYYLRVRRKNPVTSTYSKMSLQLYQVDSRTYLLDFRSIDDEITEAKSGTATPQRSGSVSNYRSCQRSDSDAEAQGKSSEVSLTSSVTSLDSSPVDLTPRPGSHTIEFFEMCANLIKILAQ
# PIM1 (human), sequence (P11309 whole entry, looked up): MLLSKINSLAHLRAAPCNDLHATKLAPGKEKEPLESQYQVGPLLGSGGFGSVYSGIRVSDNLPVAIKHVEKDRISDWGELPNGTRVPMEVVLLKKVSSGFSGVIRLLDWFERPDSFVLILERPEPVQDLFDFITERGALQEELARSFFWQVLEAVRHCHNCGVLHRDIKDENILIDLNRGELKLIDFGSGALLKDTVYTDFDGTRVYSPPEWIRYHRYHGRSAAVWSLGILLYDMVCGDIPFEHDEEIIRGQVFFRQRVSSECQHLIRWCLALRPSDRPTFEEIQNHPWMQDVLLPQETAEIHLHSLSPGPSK
# AKT1 (human), sequence (P31749 whole entry, looked up): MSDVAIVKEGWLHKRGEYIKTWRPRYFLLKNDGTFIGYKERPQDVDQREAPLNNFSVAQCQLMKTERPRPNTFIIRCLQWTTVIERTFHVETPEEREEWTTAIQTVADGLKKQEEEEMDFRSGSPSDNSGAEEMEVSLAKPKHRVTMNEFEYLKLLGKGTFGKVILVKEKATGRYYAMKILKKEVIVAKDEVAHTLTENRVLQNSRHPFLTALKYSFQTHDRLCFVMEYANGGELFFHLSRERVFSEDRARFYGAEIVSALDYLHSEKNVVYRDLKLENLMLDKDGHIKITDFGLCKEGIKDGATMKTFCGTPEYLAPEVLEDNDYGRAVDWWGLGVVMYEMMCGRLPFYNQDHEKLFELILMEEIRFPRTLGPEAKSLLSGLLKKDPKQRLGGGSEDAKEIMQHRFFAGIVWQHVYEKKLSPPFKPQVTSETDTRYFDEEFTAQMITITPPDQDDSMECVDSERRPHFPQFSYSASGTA
SMILES,inhibition (PIM1 (human)) [%],inhibition (PRKACA (mouse)) [%],inhibition (PRKAA1 (human)) [%],inhibition (AKT1 (human)) [%],inhibition (PRKAA2 (human)) [%],inhibition (FGFR1 (human)) [%]
c1cc(-c2cnn3cc(-c4ccc(OCCN5CCCCC5)cc4)cnc23)ccn1,0,0,45,0,49,21
c1ccc(-c2n[nH]cc2-c2ccnc3ccccc23)nc1,11,1,0,0,0,9
O=C(NC(NC(=S)Nc1ccc(F)c([N+](=O)[O-])c1)C(Cl)(Cl)Cl)C(c1ccccc1)c1ccccc1 (stereo not given),0,0,0,5,4,0
O=C(c1ccc(Nc2nccc(-c3cc4ccccc4s3)n2)cc1)N1CCC(N2CCCC2)CC1,22,12,63,0,75,30
CC(C)[C@H](CO)Nc1nc(Nc2cc(N)cc(Cl)c2)c2ncn(C(C)C)c2n1,6,13,5,0,3,
O=c1cc(N2CCOCC2)nc2c3ccccc3ccn12,34,0,7,0,7,0
O=C1c2ccccc2-c2n[nH]c3cccc1c23,9,0,0,0,0,1
Cn1cc(C2=C(c3cn(CCCSC(=N)N)c4ccccc34)C(=O)NC2=O)c2ccccc21,96,62,25,62,23,31
O=S(=O)(c1cccc2c(O)nccc12)N1CCCNCC1,19,19,0,0,0,
Cc1ccccc1C(=O)c1ccc(Nc2ccc(Br)cc2N)cc1Cl,0,4,0,0,0,11
COc1cc2ncn(-c3cc(OCc4ccccc4C(F)(F)F)c(C(N)=O)s3)c2cc1OC,31,14,7,12,7,57
COc1cc2ncnc(Nc3ccc(F)c(Cl)c3)c2cc1OCCCN1CCOCC1,27,1,0,0,0,13
COc1ccc(C(=O)Nc2sc3c(c2C(N)=O)CCCC3)cc1OC,0,12,9,0,0,9
O=C1Nc2cc(Br)ccc2/C1=C1/Nc2ccccc2/C1=N\O,0,2,7,0,6,10
COc1cc2c(Nc3ccc(NC(=O)c4ccccc4)cc3)ncnc2cc1OCCCN1CCOCC1,8,7,0,9,0,15
O=C1Nc2ccc(I)cc2/C1=C/c1cc(Br)c(O)c(Br)c1,73,9,0,19,0,32
O=C(Nc1cc(C(F)(F)F)cc(C(F)(F)F)c1)c1cc(Cl)ccc1O,0,0,0,0,1,0
CC1=C(O)C(=O)[C@@H]2OC2C1=O (stereo not given in full),5,0,0,0,0,3
O=S(=O)(c1cccc2c(Cl)cccc12)N1CCCNCC1,31,3,0,2,0,1
N#C/C(=C\c1ccc(O)c(O)c1)C(=O)NCc1ccccc1,0,3,0,0,0,0
COc1cc2nccc(Oc3ccc(NC(=O)Nc4ccc(F)cc4F)c(F)c3)c2cc1OC,12,16,0,6,0,68
NC(=O)c1ccc(-c2nc(-c3ccccn3)c(-c3ccc4c(c3)OCO4)[nH]2)cc1,5,0,0,1,0,8

SMILES,inhibition (PIM1 (human)) [%],inhibition (PRKACA (mouse)) [%],inhibition (PRKAA1 (human)) [%],inhibition (AKT1 (human)) [%],inhibition (PRKAA2 (human)) [%],inhibition (FGFR1 (human)) [%]
Cn1cnc2c(NCc3ccccc3)nc(NCCO)nc21,7,5,0,5,0,13
C=CC(=O)c1ccc2ccccc2c1,0,0,0,0,0,0
COc1nccc(-c2c(-c3ccc(F)cc3)ncn2[C@H]2CC[C@H](O)CC2)n1,0,0,0,0,0,0
O=c1[nH]nc(Sc2ncc([N+](=O)[O-])s2)n1-c1ccc2c(c1)OCCO2,0,5,2,0,0,4
Cc1cc(F)c(Nc2ncnc3cc(OCc4ccccc4)ccc23)cc1O,1,2,13,0,0,10
Nc1ccc(-c2cccc3c(=O)cc(N4CCOCC4)oc23)cc1,78,0,0,2,0,12
Cc1cc2nc3c(=O)[nH]c(=O)nc-3n(C)c2cc1C=O,23,11,0,24,0,22
Brc1c(Br)c(Br)c2[nH]nnc2c1Br,0,0,0,0,0,4
O=C1NC(=O)c2c1c1c3ccccc3n3c1c1c2c2ccccc2n1C1CCC3O1,100,65,65,78,70,70
N#C/C(=C\c1ccc(O)c(O)c1)C(N)=S,30,4,0,0,0,11
O=S(=O)(c1cccc2cnccc12)N1CCCNCC1,4,,0,0,0,4
Cc1cc(I)ccc1Nc1c(C(=O)NOCC2CC2)cc(F)c(F)c1F,0,0,0,0,0,3
Cc1[nH]c(/C=C2\C(=O)Nc3ccc(S(=O)(=O)Cc4c(Cl)cccc4Cl)cc32)c(C)c1C(=O)N1CCC[C@@H]1CN1CCCC1,0,1,59,8,62,23
CN1CC[C@H](c2c(O)cc(O)c3c(=O)cc(-c4ccccc4Cl)oc23)[C@H](O)C1,52,5,0,1,1,0
Fc1ccc(Cl)cc1-c1nc(Nc2ccncc2)c2nccnc2n1,50,21,7,39,32,37
Cc1ccc(NC(=O)c2cccc(N(C)C)c2)cc1NC(=O)c1ccc(O)cc1,2,7,0,0,0,0
Cn1cc(C2=C(c3ccc(Cl)cc3Cl)C(=O)NC2=O)c2ccccc21,32,5,0,3,5,12
CCN(CC)CCCCN1c2ccccc2Oc2ccc(Cl)cc21,,0,0,0,0,0
CN(C)CCCn1cc(C2=C(c3c[nH]c4ccccc34)C(=O)NC2=O)c2ccccc21,,26,11,5,20,50
O=S(=O)(NCCNC/C=C/c1ccc(Br)cc1)c1cccc2cnccc12,0,,17,21,22,14
CO[C@@H]1[C@H](N(C)C(=O)c2ccccc2)C[C@H]2O[C@]1(C)n1c3ccccc3c3c4c(c5c6ccccc6n2c5c31)C(=O)NC4,73,63,64,55,,
